Measurements as given in patent US10259818B2, “Bicyclic azaheterocyclobenzylamines as PI3K inhibitors” (Incyte Corporation, priority 2012, dated 2019).
Where a name gives a salt, the structure may show the parent alone.

Test system: SUDHL-6 cell line (diffuse large B cell lymphoma)
Assay: SUDHL-6 cell proliferation assay (Example B3)
Format: cell-based
Conditions: SUDHL-6 cells, 3 days, Cell Titer-GLO
Protocol: Example B3: SUDHL-6 Cell Proliferation Assay
SUDHL-6 cell line (diffuse large B cell lymphoma) was purchased from ATCC (Manassas, Va.) and maintained in the culture medium recommended (RPMI and 10% FBS). To measure the anti-proliferation activity of the compounds through ATP quantitation, the SUDHL-6 cells was plated with the culture medium (5000 cells/well/per 200 μl) into 96-well polystyrene clear black tissue culture plate (Greiner-bio-one through VWR, NJ) in the presence or absence of a concentration range of test compounds. After 3 days, Cell Titer-GLO Luminescent (Promega, Madison, Wis.) cell culture agent was added to each well for 10 minutes at room temperature to stabilize the luminescent signal. This determines the number of viable cells in culture based on quantitation of the ATP present, which signals the presence of metabolically active cells. Luminescence was measured with the TopCount 384 (Packard Bioscience through Perkin Elmer, Boston, Mass.). […] IC50 data for the Examples is presented in Table 4 determined by the assay of Example B3.

**Q.** How did the IC50 (Homo sapiens, SU-DHL-6, 72 h) turn out when `Cc1nn(C(C)c2cc(Cl)c(C#N)c3c2OC(C)CN(CC#N)C3)c2ncnc(N)c12` (single isomer, unassigned) [Example 108, 9-[1-(4-amino-3-methyl-1H-pyrazolo[3,4-d]pyrimidin-1-yl)ethyl]-7-chloro-4-(cyanomethyl)-2-methyl-2,3,4,5-tetrahydro-1,4-benzoxazepine-6-carbonitrile] was run?
**A.** ≤ 500 nM

**Q.** Which IC50 (Homo sapiens, SU-DHL-6, 72 h) does the source give for `Cc1nn(C(C)c2cc(Cl)c(C#N)c3c2OC(C)CN(CC(N)=O)C3)c2ncnc(N)c12` (single isomer, unassigned) [Example 110, 2-[9-[1-(4-amino-3-methyl-1H-pyrazolo[3,4-d]pyrimidin-1-yl)ethyl]-7-chloro-6-cyano-2-methyl-2,3-dihydro-1,4-benzoxazepin-4(5H)-yl]acetamide] here?
**A.** ≤ 500 nM

**Q.** How did the IC50 (Homo sapiens, SU-DHL-6, 72 h) turn out when `COCCN1Cc2c(C#N)c(Cl)cc(C(C)n3nc(C)c4c(N)ncnc43)c2OC(C)C1` (single isomer, unassigned) [Example 112, 9-[1-(4-amino-3-methyl-1H-pyrazolo[3,4-d]pyrimidin-1-yl)ethyl]-7-chloro-4-(2-methoxyethyl)-2-methyl-2,3,4,5-tetrahydro-1,4-benzoxazepine-6-carbonitrile] was run?
**A.** ≤ 500 nM

**Q.** Which IC50 (Homo sapiens, SU-DHL-6, 72 h) does the source give for `CNC(=O)C1CC(N2Cc3c(C#N)c(Cl)cc(C(C)n4nc(C)c5c(N)ncnc54)c3OC(C)C2)C1` (single isomer, unassigned) [Example 114, 3-[9-[1-(4-amino-3-methyl-1H-pyrazolo[3,4-d]pyrimidin-1-yl)ethyl]-7-chloro-6-cyano-2-methyl-2,3-dihydro-1,4-benzoxazepin-4(5H)-yl]-N-methylcyclobutane-carboxamide] here?
**A.** ≤ 500 nM

**Q.** For `CNC(=O)C1CC(N2Cc3c(C#N)c(Cl)cc(C(C)n4nc(C)c5c(N)ncnc54)c3OC(C)C2)C1` (single isomer, unassigned) [Example 115, 3-[9-[1-(4-amino-3-methyl-1H-pyrazolo[3,4-d]pyrimidin-1-yl)ethyl]-7-chloro-6-cyano-2-methyl-2,3-dihydro-1,4-benzoxazepin-4(5H)-yl]-N-methylcyclobutane-carboxamide], which IC50 is on record?
**A.** ≤ 500 nM

**Q.** How did the IC50 (Homo sapiens, SU-DHL-6, 72 h) turn out when `Cc1c(Cl)cc(C(C)n2nc(C)c3c(N)ncnc32)c2c1CN(C1CN(C(=O)OC(C)(C)C)C1)CCO2` (stereo not shown) [Example 3, tert-Butyl 3-[9-[1-(4-amino-3-methyl-1H-pyrazolo[3,4-d]pyrimidin-1-yl)ethyl]-7-chloro-6-methyl-2,3-dihydro-1,4-benzoxazepin-4(5H)-yl]azetidine-1-carboxylate] was run?
**A.** ≤ 500 nM

**Q.** With `CC(=O)N1CC(N2CCOc3c(C(C)n4nc(C)c5c(N)ncnc54)cc(Cl)c(C)c3C2)C1` (stereo not shown) [Example 4, 1-{1-[4-(1-Acetylazetidin-3-yl)-7-chloro-6-methyl-2,3,4,5-tetrahydro-1,4-benzoxazepin-9-yl]ethyl}-3-methyl-1H-pyrazolo[3,4-d]pyrimidin-4-amine] as the compound, how does the IC50 (Homo sapiens, SU-DHL-6, 72 h) read?
**A.** ≤ 500 nM

**Q.** How did the IC50 (Homo sapiens, SU-DHL-6, 72 h) turn out when `Cc1c(Cl)cc(C(C)n2nc(C)c3c(N)ncnc32)c2c1CN(C1CCC1)CCO2` (stereo not shown) [Example 5, 1-[1-(7-Chloro-4-cyclobutyl-6-methyl-2,3,4,5-tetrahydro-1,4-benzoxazepin-9-yl)ethyl]-3-methyl-1H-pyrazolo[3,4-d]pyrimidin-4-amine bis(trifluoroacetate)] was run?
**A.** ≤ 500 nM

**Q.** `Cc1c(Cl)cc(C(C)n2nc(C)c3c(N)ncnc32)c2c1CN(C1CCCC1)CCO2` (stereo not shown) [Example 6, 1-[1-(7-Chloro-4-cyclopentyl-6-methyl-2,3,4,5-tetrahydro-1,4-benzoxazepin-9-yl)ethyl]-3-methyl-1H-pyrazolo[3,4-d]pyrimidin-4-amine bis(trifluoroacetate)] was tested. Which IC50 (Homo sapiens, SU-DHL-6, 72 h) did it give?
**A.** ≤ 500 nM

**Q.** `Cc1c(Cl)cc(C(C)n2nc(C)c3c(N)ncnc32)c2c1CN(C(C)C)CCO2` (stereo not shown) [Example 10, 1-[1-(7-Chloro-4-isopropyl-6-methyl-2,3,4,5-tetrahydro-1,4-benzoxazepin-9-yl)ethyl]-3-methyl-1H-pyrazolo[3,4-d]pyrimidin-4-amine bis(trifluoroacetate)] was tested. Which IC50 (Homo sapiens, SU-DHL-6, 72 h) did it give?
**A.** ≤ 500 nM

**Q.** How did the IC50 (Homo sapiens, SU-DHL-6, 72 h) turn out when `Cc1c(Cl)cc(C(C)n2nc(C)c3c(N)ncnc32)c2c1CN(C(=O)CC#N)CCO2` (stereo not shown) [Example 12, 3-[9-[1-(4-Amino-3-methyl-1H-pyrazolo[3,4-d]pyrimidin-1-yl)ethyl]-7-chloro-6-methyl-2,3-dihydro-1,4-benzoxazepin-4(5H)-yl]-3-oxopropanenitrile trifluoroacetate] was run?
**A.** ≤ 500 nM

**Q.** `Cc1c(Cl)cc(C(C)n2nc(C)c3c(N)ncnc32)c2c1CN(S(C)(=O)=O)CCO2` (stereo not shown) [Example 13, 1-{1-[7-Chloro-6-methyl-4-(methylsulfonyl)-2,3,4,5-tetrahydro-1,4-benzoxazepin-9-yl]ethyl}-3-methyl-1H-pyrazolo[3,4-d]pyrimidin-4-amine Trifluoroacetate] was tested. Which IC50 (Homo sapiens, SU-DHL-6, 72 h) did it give?
**A.** ≤ 500 nM

**Q.** Which IC50 (Homo sapiens, SU-DHL-6, 72 h) does the source give for `Cc1c(Cl)cc(C(C)n2nc(C)c3c(N)ncnc32)c2c1CN(S(=O)(=O)C1CC1)CCO2` (stereo not shown) [Example 18, 1-{1-[7-Chloro-4-(cyclopropylsulfonyl)-6-methyl-2,3,4,5-tetrahydro-1,4-benzoxazepin-9-yl]ethyl}-3-methyl-1H-pyrazolo[3,4-d]pyrimidin-4-amine Trifluoroacetate] here?
**A.** 500 to 1000 nM

**Q.** With `CCC(=O)N1CCOc2c(C(C)n3nc(C)c4c(N)ncnc43)cc(Cl)c(C)c2C1` (stereo not shown) [Example 20, 1-[1-(7-Chloro-6-methyl-4-propionyl-2,3,4,5-tetrahydro-1,4-benzoxazepin-9-yl)ethyl]-3-methyl-1H-pyrazolo[3,4-d]pyrimidin-4-amine Trifluoroacetate] as the compound, how does the IC50 (Homo sapiens, SU-DHL-6, 72 h) read?
**A.** ≤ 500 nM

**Q.** For `COCC(=O)N1CCOc2c(C(C)n3nc(C)c4c(N)ncnc43)cc(Cl)c(C)c2C1` (stereo not shown) [Example 21, 1-{1-[7-Chloro-4-(methoxyacetyl)-6-methyl-2,3,4,5-tetrahydro-1,4-benzoxazepin-9-yl]ethyl}-3-methyl-1H-pyrazolo[3,4-d]pyrimidin-4-amine Trifluoroacetate], which IC50 (Homo sapiens, SU-DHL-6, 72 h) is on record?
**A.** ≤ 500 nM

**Q.** With `Cc1c(Cl)cc(C(C)n2nc(C)c3c(N)ncnc32)c2c1CN(c1ncc(C#N)s1)CCO2` (stereo not shown) [Example 23, 2-[9-[1-(4-Amino-3-methyl-1H-pyrazolo[3,4-d]pyrimidin-1-yl)ethyl]-7-chloro-6-methyl-2,3-dihydro-1,4-benzoxazepin-4(5H)-yl]-1,3-thiazole-5-carbonitrile Trifluoroacetate] as the compound, how does the IC50 (Homo sapiens, SU-DHL-6, 72 h) read?
**A.** ≤ 500 nM

**Q.** With `Cc1c(Cl)cc(C(C)n2nc(C)c3c(N)ncnc32)c2c1CN(c1cnccn1)CCO2` (stereo not shown) [Example 24, 1-[1-(7-Chloro-6-methyl-4-pyrazin-2-yl-2,3,4,5-tetrahydro-1,4-benzoxazepin-9-yl)ethyl]-3-methyl-1H-pyrazolo[3,4-d]pyrimidin-4-amine bis(trifluoroacetate)] as the compound, how does the IC50 (Homo sapiens, SU-DHL-6, 72 h) read?
**A.** 500 to 1000 nM

**Q.** With `CC(=O)N1CC(N2CCOc3c(C(C)n4nc(C)c5c(N)ncnc54)cc(Cl)c(F)c3C2)C1` (stereo not shown) [Example 34, 1-{1-[4-(1-Acetylazetidin-3-yl)-7-chloro-6-fluoro-2,3,4,5-tetrahydro-1,4-benzoxazepin-9-yl]ethyl}-3-methyl-1H-pyrazolo[3,4-d]pyrimidin-4-amine] as the compound, how does the IC50 (Homo sapiens, SU-DHL-6, 72 h) read?
**A.** ≤ 500 nM

**Q.** With `Cc1nn(C(C)c2cc(Cl)c(F)c3c2O[C@@H](C)CN(C2CC(C(=O)O)C2)C3)c2ncnc(N)c12` (stereo partly shown) [Example 41, 3-[9-[1-(4-Amino-3-methyl-1H-pyrazolo[3,4-d]pyrimidin-1-yl)ethyl]-7-chloro-6-fluoro-2-methyl-2,3-dihydro-1,4-benzoxazepin-4(5H)-yl]cyclobutanecarboxylic Acid Trifluoroacetate] as the compound, how does the IC50 (Homo sapiens, SU-DHL-6, 72 h) read?
**A.** ≤ 500 nM

**Q.** Which IC50 does the source give for `Cc1nn(C(C)c2cc(Cl)c(F)c3c2O[C@@H](C)CN(C2CC(C(=O)O)C2)C3)c2ncnc(N)c12` (stereo partly shown) [Example 42, 3-[9-[1-(4-Amino-3-methyl-1H-pyrazolo[3,4-d]pyrimidin-1-yl)ethyl]-7-chloro-6-fluoro-2-methyl-2,3-dihydro-1,4-benzoxazepin-4(5H)-yl]cyclobutanecarboxylic Acid Trifluoroacetate] here?
**A.** ≤ 500 nM

**Q.** Which IC50 (Homo sapiens, SU-DHL-6, 72 h) does the source give for `CC(=O)N1CC(N2CCOc3c(C(C)n4nc(C)c5c(N)ncnc54)cc(Cl)c(C#N)c3C2)C1` (stereo not shown) [Example 46, 4-(1-Acetylazetidin-3-yl)-9-[1-(4-amino-3-methyl-1H-pyrazolo [3,4-d]pyrimidin-1-yl)ethyl]-7-chloro-2,3,4,5-tetrahydro-1,4-benzoxazepine-6-carbonitrile] here?
**A.** ≤ 500 nM

**Q.** Which IC50 (Homo sapiens, SU-DHL-6, 72 h) does the source give for `Cc1nn(C(C)c2cc(Cl)c(C#N)c3c2OCCN(C2CN(CCO)C2)C3)c2ncnc(N)c12` (stereo not shown) [Example 47, 9-[1-(4-amino-3-methyl-1H-pyrazolo[3,4-d]pyrimidin-1-yl)ethyl]-7-chloro-4-[1-(2-hydroxyethyl)azetidin-3-yl]-2,3,4,5-tetrahydro-1,4-benzoxazepine-6-carbonitrile] here?
**A.** ≤ 500 nM

**Q.** Which IC50 does the source give for `Cc1nn(C(C)c2cc(Cl)c(C#N)c3c2OC(C)CN(C2CN(CC(N)=O)C2)C3)c2ncnc(N)c12` (stereo not shown) [Example 51, 2-{3-[9-[1-(4-Amino-3-methyl-1H-pyrazolo[3,4-d]pyrimidin-1-yl)ethyl]-7-chloro-6-cyano-2-methyl-2,3-dihydro-1,4-benzoxazepin-4(5H)-yl]azetidin-1-yl}acetamide] here?
**A.** ≤ 500 nM

**Q.** `Cc1nn(C(C)c2cc(Cl)c(C#N)c3c2O[C@@H](C)CN(C2CN(CCO)C2)C3)c2ncnc(N)c12` (stereo partly drawn) [Example 56, (2S)-9-[1-(4-Amino-3-methyl-1H-pyrazolo[3,4-d]pyrimidin-1-yl)ethyl]-7-chloro-4-[1-(2-hydroxyethyl)azetidin-3-yl]-2-methyl-2,3,4,5-tetrahydro-1,4-benzoxazepine-6-carbonitrile] was tested. Which IC50 (Homo sapiens, SU-DHL-6, 72 h) did it give?
**A.** ≤ 500 nM

**Q.** How did the IC50 turn out when `Cc1nn(C(C)c2cc(Cl)c(C#N)c3c2O[C@@H](C)CN(C2CN(CCO)C2)C3)c2ncnc(N)c12` (stereo partly drawn) [Example 57, (2S)-9-[1-(4-Amino-3-methyl-1H-pyrazolo[3,4-d]pyrimidin-1-yl)ethyl]-7-chloro-4-[1-(2-hydroxyethyl)azetidin-3-yl]-2-methyl-2,3,4,5-tetrahydro-1,4-benzoxazepine-6-carbonitrile] was run?
**A.** ≤ 500 nM
